pIC50: −log10 of the molar value.

Data on 28 compounds can be found in patent US7704995B2 (Exelixis, Inc., priority 2003, dated 2010).

The test deals with T1, Chk1 (Homo sapiens, UniProt O14757).
T1 construct: purchased Upstate Biotechnology
T1 sequence (O14757 1-476): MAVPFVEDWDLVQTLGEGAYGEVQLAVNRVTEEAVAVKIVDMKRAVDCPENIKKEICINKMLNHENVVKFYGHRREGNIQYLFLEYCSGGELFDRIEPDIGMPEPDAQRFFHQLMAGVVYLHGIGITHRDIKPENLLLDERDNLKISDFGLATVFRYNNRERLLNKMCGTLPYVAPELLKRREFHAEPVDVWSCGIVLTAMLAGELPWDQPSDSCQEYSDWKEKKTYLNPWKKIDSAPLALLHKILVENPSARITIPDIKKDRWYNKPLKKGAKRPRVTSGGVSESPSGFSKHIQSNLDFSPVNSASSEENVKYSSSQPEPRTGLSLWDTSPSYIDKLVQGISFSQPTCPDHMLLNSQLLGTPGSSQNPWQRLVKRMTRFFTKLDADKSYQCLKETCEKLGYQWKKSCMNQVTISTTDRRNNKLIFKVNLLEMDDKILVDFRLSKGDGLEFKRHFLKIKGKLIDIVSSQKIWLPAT
The test can be described thus: Chk1 kinase assay: incorporation of γ-33P ATP into immobilized myelin basic protein. It is filed as biochemical. Particulars: Table 11, Chk1 only; class symbols A-D; read-out: Chk1 IC50. A digest of the protocol:
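Enzyme activity is measured as γ-33P transfer from ATP onto immobilized MBP over 1 h at room temperature, with Chk1 at 10 nM/10 μM unlabeled ATP and Chk2 at 20 nM/30 μM unlabeled ATP. Compounds are tested in 1% DMSO.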

In general, pIC50 refers to the negative decadic logarithm of the IC50, by convention in mol/L. With `COc1ccc(CNC(=O)c2cccc(-c3cnc(N)c(C(=O)N[C@H]4CCCNC4)n3)c2)c(OC)c1` [Example 856, 3-amino-6-{3-[({[2,4-bis(methyloxy)phenyl]methyl}amino)carbonyl]phenyl}-N-[(3S)-piperidin-3-yl]pyrazine-2-carboxamide], the pIC50 is above 7.30. The value for `Cc1cc(Cl)ccc1CNC(=O)c1cccc(-c2cnc(N)c(C(=O)N[C@H]3CCCNC3)n2)c1` [Example 857, 3-amino-6-[3-({[(4-chloro-2-methylphenyl)methyl]amino}carbonyl)phenyl]-N-[(3S)-piperidin-3-yl]pyrazine-2-carboxamide] was above 7.30; that for `Cc1ccc(CNC(=O)c2cccc(-c3cnc(N)c(C(=O)N[C@H]4CCCNC4)n3)c2)c(F)c1F` [Example 858, 3-amino-6-[3-({[(2,3-difluoro-4-methylphenyl)methyl]amino}carbonyl)phenyl]-N-[(3S)-piperidin-3-yl]pyrazine-2-carboxamide] was above 7.30.

Consider `CS(=O)(=O)c1ccc(CNC(=O)c2cccc(-c3cnc(N)c(C(=O)N[C@H]4CCCNC4)n3)c2)cc1` [Example 859, 3-amino-6-{3-[({[4-(methylsulfonyl)phenyl]methyl}amino)carbonyl]phenyl}-N-[(3S)-piperidin-3-yl]pyrazine-2-carboxamide], for which the pIC50 is above 7.30. Then `Nc1ncc(-c2cccc(C(=O)NCc3ccc4c(c3)OCCO4)c2)nc1C(=O)N[C@H]1CCCNC1` [Example 860, 3-amino-6-(3-{[(2,3-dihydro-1,4-benzodioxin-6-ylmethyl)amino]carbonyl}phenyl)-N-[(3S)-piperidin-3-yl]pyrazine-2-carboxamide], with above 7.30.

Take `Nc1ncc(-c2cccc(C(=O)NCc3ccc(Cl)cc3)c2)nc1C(=O)N[C@H]1CCCNC1` [Example 861, 3-amino-6-[3-({[(4-chlorophenyl)methyl]amino}carbonyl)phenyl]-N-[(3S)-piperidin-3-yl]pyrazine-2-carboxamide]: the pIC50 was above 7.30. In the case of `Nc1ncc(-c2cccc(C(=O)NCc3cc(Cl)ccc3F)c2)nc1C(=O)N[C@H]1CCCNC1` [Example 862, 3-amino-6-[3-({[(5-chloro-2-fluorophenyl)methyl]amino}carbonyl)phenyl]-N-[(3S)-piperidin-3-yl]pyrazine-2-carboxamide], the pIC50 is above 7.30. The value for `Nc1ncc(-c2cccc(CN[C@H]3CCc4ccccc43)c2)nc1C(=O)N[C@H]1CN2CCC1CC2` [Example 863, 3-amino-N-[(3R)-1-azabicyclo[2.2.2]oct-3-yl]-6(3-{[(1S)-2,3-dihydro-1H-inden-1-ylamino]methyl}phenyl)pyrazine-2-carboxamide] was 6.00 to 7.30; that for `CSc1ccc(CNC(=O)c2cccc(-c3cnc(N)c(C(=O)N[C@H]4CCCNC4)n3)c2)cc1` [Example 864, 3-amino-6-{3-[({[4-(methylthio)phenyl]methyl}amino)carbonyl]phenyl}-N-[(3S)-piperidin-3-yl]pyrazine-2-carboxamide] was above 7.30; that for `Nc1ncc(-c2cccc(C(=O)NCc3ccc(F)cc3F)c2)nc1-c1nc([C@H]2CCCNC2)n[nH]1` [Example 865, 3-(5-amino-6-{3-[(3S)-piperidin-3-yl]-1H-1,2,4-triazol-5-yl}pyrazin-2-yl)-N-[(2,4-difluorophenyl)methyl]benzamide] was above 7.30. The value for `Nc1ncc(-c2cccc(C(=O)NC(Cc3ccccc3)c3ccccc3)c2)nc1C(=O)N[C@H]1CCCNC1` (stereo partly drawn) [Example 866, 3-amino-6-(3-{[(1,2-diphenylethyl)amino]carbonyl}phenyl)-N-[(3S)-piperidin-3-yl]pyrazine-2-carboxamide] was above 7.30; that for `Nc1ncc(-c2cccc(C(=O)NCc3ccc(F)c(F)c3)c2)nc1-c1nc([C@H]2CCCNC2)n[nH]1` [Example 867, 3-(5-amino-6-{3-[(3S)-piperidin-3-yl]-1H-1,2,4-triazol-5-yl}pyrazin-2-yl)-N-[(3,4-difluorophenyl)methyl]benzamide] was above 7.30. The value for `Nc1ncc(-c2cccc(C(=O)NCc3cc(F)cc(F)c3)c2)nc1C(=O)N[C@H]1CCCNC1` [Example 868, 3-amino-6-[3-({[(3,5-difluorophenyl)methyl]amino}carbonyl)phenyl]-N-[(3S)-piperidin-3-yl]pyrazine-2-carboxamide] was above 7.30. In the case of `COC(=O)c1ccc(CNC(=O)c2cccc(-c3cnc(N)c(C(=O)N[C@H]4CCCNC4)n3)c2)cc1` [Example 869, methyl 4-[({[3-(5-amino-6-{[(3S)-piperidin-3-ylamino]carbonyl}pyrazin-2-yl)phenyl]carbonyl}amino)methyl]benzoate], the pIC50 is above 7.30.

In the case of `Nc1ncc(-c2cccc(C(=O)NCc3ccc(Br)cc3)c2)nc1C(=O)N[C@H]1CCCNC1` [Example 870, 3-amino-6-[3-({[(4-bromophenyl)methyl]amino}carbonyl)phenyl]-N-[(3S)-piperidin-3-yl]pyrazine-2-carboxamide], the negative logarithm of the IC50 (pIC50) was above 7.30.

For `Nc1ncc(-c2cccc(C(=O)NCc3ccc(Br)cc3F)c2)nc1C(=O)N[C@H]1CCCNC1` [Example 871, 3-amino-6-[3-({[(4-bromo-2-fluorophenyl)methyl]amino}carbonyl)phenyl]-N-[(3S)-piperidin-3-yl]pyrazine-2-carboxamide], the pIC50 was above 7.30. For the compound `Nc1ncc(-c2cccc(C(=O)NCc3ccccc3Br)c2)nc1C(=O)N[C@H]1CCCNC1` [Example 872, 3-amino-6-[3-({[(2-bromophenyl)methyl]amino}carbonyl)phenyl]-N-[(3S)-piperidin-3-yl]pyrazine-2-carboxamide], the pIC50 is above 7.30. Turning to `Nc1ncc(-c2cccc(C(=O)NCc3ccc(F)cc3C(F)(F)F)c2)nc1C(=O)N[C@H]1CCCNC1` [Example 873, 3-amino-6-{3-[({[4-fluoro-2-(trifluoromethyl)phenyl]methyl}amino)carbonyl]phenyl}-N-[(3S)-piperidin-3-yl]pyrazine-2-carboxamide], the pIC50 is above 7.30. The value for `Nc1ncc(-c2cccc(C(=O)NCc3cccc(C(F)(F)F)c3F)c2)nc1C(=O)N[C@H]1CCCNC1` [Example 874, 3-amino-6-{3-[({[2-fluoro-3-(trifluoromethyl)phenyl]methyl}amino)carbonyl]phenyl}-N-[(3S)-piperidin-3-yl]pyrazine-2-carboxamide] was above 7.30; that for `Nc1ncc(-c2cccc(C(=O)NC[C@@H]3CCNC3)c2)nc1C(=O)N[C@H]1CCCNC1` [Example 875, 3-amino-N-[(3S)-piperidin-3-yl]-6-[3-({[(3R)-pyrrolidin-3-ylmethyl]amino}carbonyl)phenyl]pyrazine-2-carboxamide] was above 7.30.

Turning to `Nc1ncc(-c2cccc(C(=O)N[C@@H]3CCNC3)c2)nc1C(=O)N[C@H]1CCCNC1` [Example 876, 3-amino-N-[(3S)-piperidin-3-yl]-6-(3-{[(3R)-pyrrolidin-3-ylamino]carbonyl}phenyl)pyrazine-2-carboxamide], the pIC50 was above 7.30. The value for `Nc1ncc(-c2cccc(C(=O)NCCN3CCCCC3)c2)nc1C(=O)N[C@H]1CCCNC1` [Example 877, 3-amino-N-[(3S)-piperidin-3-yl]-6-(3-{[(2-piperidin-1-ylethyl)amino]carbonyl}phenyl)pyrazine-2-carboxamide] was above 7.30. For the compound `Nc1ncc(-c2cccc(C(=O)NCCc3ccccc3)c2)nc1C(=O)N[C@H]1CCCNC1` [Example 878, 3-amino-6-(3-{[(2-phenylethyl)amino]carbonyl}phenyl)-N-[(3S)-piperidin-3-yl]pyrazine-2-carboxamide], the negative logarithm of the IC50 (pIC50) was above 7.30. Take `COCCNC(=O)c1cccc(-c2cnc(N)c(C(=O)N[C@H]3CCCNC3)n2)c1` [Example 879, 3-amino-6-[3-({[2-(methyloxy)ethyl]amino}carbonyl)phenyl]-N-[(3S)-piperidin-3-yl]pyrazine-2-carboxamide]: the pIC50 is 6.00 to 7.30. Then `Nc1ncc(-c2cccc(C(=O)NCc3ccc(I)cc3)c2)nc1C(=O)N[C@H]1CCCNC1` [Example 880, 3-amino-6-[3-({[(4-iodophenyl)methyl]amino}carbonyl)phenyl]-N-[(3S)-piperidin-3-yl]pyrazine-2-carboxamide], with above 7.30; and `Nc1ncc(-c2cccc(C(=O)NCc3ccccc3Cl)c2)nc1C(=O)N[C@H]1CCCNC1` [Example 881, 3-amino-6-[3-({[(2-chlorophenyl)methyl]amino}carbonyl)phenyl]-N-[(3S)-piperidin-3-yl]pyrazine-2-carboxamide], with above 7.30; and `Nc1ncc(-c2cccc(CNC(=O)c3ccc(F)cc3)c2)nc1C(=O)N[C@H]1CCCNC1` [Example 882, 3-amino-6-[3-({[(4-fluorophenyl)carbonyl]amino}methyl)phenyl]-N-[(3S)-piperidin-3-yl]pyrazine-2-carboxamide], with above 7.30. As to `Nc1ncc(-c2cccc(CNC(=O)c3ccc(OC(F)(F)F)cc3)c2)nc1C(=O)N[C@H]1CCCNC1` [Example 883, 3-amino-N-[(3S)-piperidin-3-yl]-6-(3-{[({4-[(trifluoromethyl)oxy]phenyl}carbonyl)amino]methyl}phenyl)pyrazine-2-carboxamide], the pIC50 was above 7.30.
